The source of these data is patent US8519128B2, “Pyripyropene derivatives having an ACAT2-inhibiting activity” (The Kitasato Institute, priority 2007, dated 2013).

In this assay the target is T1, ACAT 2 (Mus musculus, UniProt O88908).
T1 construct: The source of ACAT 2 enzyme used was a membrane fraction derived from mouse liver microsome; from tissue; host or cells: mouse liver (microsome fraction)
T1 sequence (O88908 1-525): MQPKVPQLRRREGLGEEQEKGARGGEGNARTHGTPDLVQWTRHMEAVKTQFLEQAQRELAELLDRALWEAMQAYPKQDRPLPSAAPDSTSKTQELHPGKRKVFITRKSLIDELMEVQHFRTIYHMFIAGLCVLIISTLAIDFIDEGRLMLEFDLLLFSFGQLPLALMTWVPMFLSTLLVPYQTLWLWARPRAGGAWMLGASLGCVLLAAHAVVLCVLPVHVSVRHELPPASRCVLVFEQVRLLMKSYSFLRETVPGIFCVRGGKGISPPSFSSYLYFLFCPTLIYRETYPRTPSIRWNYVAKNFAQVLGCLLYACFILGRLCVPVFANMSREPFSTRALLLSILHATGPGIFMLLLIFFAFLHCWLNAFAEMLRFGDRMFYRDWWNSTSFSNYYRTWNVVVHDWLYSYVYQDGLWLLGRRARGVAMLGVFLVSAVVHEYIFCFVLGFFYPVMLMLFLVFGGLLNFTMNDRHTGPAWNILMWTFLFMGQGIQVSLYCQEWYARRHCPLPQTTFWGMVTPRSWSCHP
The assay can be described thus: ACAT-inhibiting activity, mouse liver microsome membrane fraction, [14C]oleoyl-CoA. To be noted: for Specific activity: (inhibitory activity of test compound)/(inhibitory activity of pyripyropene A): relative to pyripyropene A. The class given is biochemical. As for the experimental part:
The source of ACAT 2 enzyme used was a membrane fraction derived from mouse liver microsome. Mouse liver was homogenized in buffer solution A (50 mM Tris-HCl (pH 7.8), 1 mM ethylenediamine tetraacetate, and 1 mM phenylmethanesulfonyl fluoride) using a homogenizer of the Potter type (Tokyo-RIKO). The homogenate was centrifuged at 12000×g, and the supernatant was ultracentrifuged at 100000×g. The sediment was taken as a microsome fraction, and this fraction was adjusted to have a protein concentration of 5 mg/ml using buffer solution A.
The chloroform layer was evaporated to dryness and was used to spot a thin layer chromatography plate (silica gel plate, Merck, 0.5 mm thickness). Elution for separation was carried out using a solvent of hexane/diethyl ether/acetic acid (70:30:1, v/v).

Setting [1] is: mouse liver microsome, 5 minutes at 37° C.

Molecules are shown by their SMILES. Like-named read-outs stand apart in the source and are kept apart here.

On to `CC12COC(c3ccccc3)O[C@H]1CC[C@@]1(C)C2C[C@H](OC(=O)c2ccc(F)cc2)[C@@]2(C)Oc3cc(-c4cccnc4)oc(=O)c3[C@H](O)C12` (stereo partly drawn) [PRD 048, 1,11-O-benzylidene-7-O-p-fluorobenzoyl-1,7,11-trideacetylpyripyropene A], for which the “Specific activity: (inhibitory activity of test compound)/(inhibitory activity of pyripyropene A)” value is reported as “++ (10 > specific activity > 5)”. The compound further registered an IC50 under setting [1] of 10 to 100 nM.
Turning to `CC12COC(c3ccccc3)O[C@H]1CC[C@@]1(C)C2C[C@H](OC(=O)c2ccccc2Cl)[C@@]2(C)Oc3cc(-c4cccnc4)oc(=O)c3[C@H](O)C12` (stereo partly drawn) [PRD 049, 1,11-O-benzylidene-7-O-o-chlorobenzoyl-1,7,11-trideacetylpyripyropene A], the “Specific activity: (inhibitory activity of test compound)/(inhibitory activity of pyripyropene A)” value is given as “+++ (50 > specific activity > 10)”. The compound further returned an IC50 under setting [1] of 10 to 100 nM.
In the case of `CC12COC(c3ccccc3)O[C@H]1CC[C@@]1(C)C2C[C@H](OC(=O)c2cccc(Cl)c2)[C@@]2(C)Oc3cc(-c4cccnc4)oc(=O)c3[C@H](O)C12` (stereo partly drawn) [PRD 050, 1,11-O-benzylidene-7-O-m-chlorobenzoyl-1,7,11-trideacetylpyripyropene A], the “Specific activity: (inhibitory activity of test compound)/(inhibitory activity of pyripyropene A)” value is “+++ (50 > specific activity > 10)”. The IC50 under setting [1] lay within 10 to 100 nM.
On the same counts, the results for `CC12COC(c3ccccc3)O[C@H]1CC[C@@]1(C)C2C[C@H](OC(=O)c2ccc(Cl)cc2)[C@@]2(C)Oc3cc(-c4cccnc4)oc(=O)c3[C@H](O)C12` (stereo partly drawn) [PRD 051, 1,11-O-benzylidene-7-O-p-chlorobenzoyl-1,7,11-trideacetylpyripyropene A] are “++ (10 > specific activity > 5)” and 10 to 100 nM.
With `CC12COC(c3ccccc3)O[C@H]1CC[C@@]1(C)C2C[C@H](OC(=O)c2cccc(Br)c2)[C@@]2(C)Oc3cc(-c4cccnc4)oc(=O)c3[C@H](O)C12` (stereo partly drawn) [PRD 052, 1,11-O-benzylidene-7-O-m-bromobenzoyl-1,7,11-trideacetylpyripyropene A], the “Specific activity: (inhibitory activity of test compound)/(inhibitory activity of pyripyropene A)” value is “++ (10 > specific activity > 5)”. Under setting [1], this compound displayed an IC50 of 10 to 100 nM.
For the compound `CC12COC(c3ccccc3)O[C@H]1CC[C@@]1(C)C2C[C@H](OC(=O)c2ccc(Br)cc2)[C@@]2(C)Oc3cc(-c4cccnc4)oc(=O)c3[C@H](O)C12` (stereo partly drawn) [PRD 053, 1,11-O-benzylidene-7-O-p-bromobenzoyl-1,7,11-trideacetylpyripyropene A], the “Specific activity: (inhibitory activity of test compound)/(inhibitory activity of pyripyropene A)” value is on record as “+ (5 > specific activity > 1)”. Also, under setting [1], the IC50 lay within 10 to 100 nM.
On the same counts, the results for `CC12COC(c3ccccc3)O[C@H]1CC[C@@]1(C)C2C[C@H](OC(=O)c2ccc(C=O)cc2)[C@@]2(C)Oc3cc(-c4cccnc4)oc(=O)c3[C@H](O)C12` (stereo partly drawn) [PRD 054, 1,11-O-benzylidene-7-O-p-formylbenzoyl-1,7,11-trideacetylpyripyropene A] are “+ (5 > specific activity > 1)” and 10 to 100 nM.
Take `COCCOCO[C@H]1CC2C(C)(COC(C)=O)[C@@H](OC(C)=O)CC[C@]2(C)C2[C@@H](O)c3c(cc(-c4cccnc4)oc3=O)O[C@@]21C` (stereo partly drawn) [PRD 055, 7-deacetyl-7-O-methoxyethoxymethylpyripyropene A]: the “Specific activity: (inhibitory activity of test compound)/(inhibitory activity of pyripyropene A)” value was “+++ (50 > specific activity > 10)”. This compound also displayed an IC50 under setting [1] of 10 to 100 nM.
As for `CC(=O)OCC1(C)C2C[C@H](OC(=O)Oc3ccccc3)[C@@]3(C)Oc4cc(-c5cccnc5)oc(=O)c4[C@H](O)C3[C@@]2(C)CC[C@@H]1OC(C)=O` (stereo partly drawn) [PRD 057, 7-deacetyl-7-O-phenoxycarbonylpyripyropene A], the “Specific activity: (inhibitory activity of test compound)/(inhibitory activity of pyripyropene A)” value is given as “+ (5 > specific activity > 1)”. This compound showed an IC50 under setting [1] of 10 to 100 nM.
Turning to `CC(=O)OCC1(C)C2C[C@H](OC(=O)Oc3ccc(Cl)cc3)[C@@]3(C)Oc4cc(-c5cccnc5)oc(=O)c4[C@H](O)C3[C@@]2(C)CC[C@@H]1OC(C)=O` (stereo partly drawn) [PRD 058, 7-O-p-chlorophenoxycarbonyl-7-deacetylpyripyropene A], the “Specific activity: (inhibitory activity of test compound)/(inhibitory activity of pyripyropene A)” value is listed as “+++ (50 > specific activity > 10)”. In addition, the half-inhibitory concentration (IC50) under setting [1] fell in the range of 10 to 100 nM.
For the compound `CC12CO[Si](C(C)(C)C)(C(C)(C)C)O[C@H]1CC[C@@]1(C)C2C[C@H](OC(=O)c2ccc(C#N)cc2)[C@@]2(C)Oc3cc(-c4cccnc4)oc(=O)c3[C@H](O)C12` (stereo partly drawn) [PRD 059, 7-O-p-cyanobenzoyl-1,11-O-(di-tert-butylsilylene)-1,7,11-trideacetylpyripyropene A], the “Specific activity: (inhibitory activity of test compound)/(inhibitory activity of pyripyropene A)” value is listed as “+ (5 > specific activity > 1)”. Under setting [1], this compound displayed a half-inhibitory concentration (IC50) of 100 to 1000 nM.
In the case of `CC12CO[Si](C(C)(C)C)(C(C)(C)C)O[C@H]1CC[C@@]1(C)C2C[C@H](OC(=O)c2ccc(C#N)cc2)[C@@]2(C)Oc3cc(-c4cccnc4)oc(=O)c3[C@H](OC(=O)c3ccc(C#N)cc3)C12` (stereo partly drawn) [PRD 060, 7,13-di-(O-p-cyanobenzoyl)-1,11-O-(di-tert-butylsilylene)-1,7,11-trideacetylpyripyropene A], the “Specific activity: (inhibitory activity of test compound)/(inhibitory activity of pyripyropene A)” value is “+ (5 > specific activity > 1)”. Under setting [1], this compound registered an IC50 of 100 to 1000 nM.
Regarding `CC(=O)OCC1(C)C2C=C[C@@]3(C)Oc4cc(-c5cccnc5)oc(=O)c4[C@H](O)C3[C@@]2(C)CC[C@@H]1OC(C)=O` (stereo partly drawn) [PRD 061, 7,8-olefinpyripyropene A], the IC50 fell in the range of 100 to 1000 nM and the “Specific activity: (inhibitory activity of test compound)/(inhibitory activity of pyripyropene A)” value is recorded as “+ (5 > specific activity > 1)”.
As to `CC(=O)OCC1(C)C2C[C@@H](N=[N+]=[N-])[C@@]3(C)Oc4cc(-c5cccnc5)oc(=O)c4[C@H](O)C3[C@@]2(C)CC[C@@H]1OC(C)=O` (stereo partly drawn) [PRD 062, 7-(R)-azide-7-(S)-deacetylpyripyropene A], the “Specific activity: (inhibitory activity of test compound)/(inhibitory activity of pyripyropene A)” value was “+ (5 > specific activity > 1)”. The compound further yielded an IC50 under setting [1] of 100 to 1000 nM.
As to `CC(=O)OCC1(C)C2C[C@@H](I)[C@@]3(C)Oc4cc(-c5cccnc5)oc(=O)c4[C@H](O)C3[C@@]2(C)CC[C@@H]1OC(C)=O` (stereo partly drawn) [PRD 064, 7-(R)-iodo-7-(S)-deacetylpyripyropene A], the “Specific activity: (inhibitory activity of test compound)/(inhibitory activity of pyripyropene A)” value was “+ (5 > specific activity > 1)”. This compound also registered a 50% inhibitory concentration (IC50) under setting [1] of 100 to 1000 nM.
On to `CC(=O)OCC1(C)C2C[C@@H](Cl)[C@@]3(C)Oc4cc(-c5cccnc5)oc(=O)c4[C@H](O)C3[C@@]2(C)CC[C@@H]1OC(C)=O` (stereo partly drawn) [PRD 065, 7-(R)-chloro-7-(S)-deacetylpyripyropene A], for which the half-inhibitory concentration (IC50) lay in the range of 100 to 1000 nM and the “Specific activity: (inhibitory activity of test compound)/(inhibitory activity of pyripyropene A)” value was “+ (5 > specific activity > 1)”.
As to `COc1ccc(-n2nnnc2S[C@@H]2CC3C(C)(COC(C)=O)[C@@H](OC(C)=O)CC[C@]3(C)C3[C@@H](O)c4c(cc(-c5cccnc5)oc4=O)O[C@@]32C)cc1` (stereo partly drawn) [PRD 066, 7-(R)-{sulfinyl-5-(p-methoxyphenyl)tetrazol-1-yl}-7-(S)-deacetylpyripyropene A], the “Specific activity: (inhibitory activity of test compound)/(inhibitory activity of pyripyropene A)” value is on record as “+ (5 > specific activity > 1)”. Under setting [1], this compound returned a half-maximal inhibitory concentration (IC50) of 100 to 1000 nM.
Consider `CC(=O)OCC1(C)C2C[C@H](OC(=O)C3CCCC3)[C@@]3(C)Oc4cc(-c5cccnc5)oc(=O)c4[C@H](O)C3[C@@]2(C)CC[C@@H]1OC(C)=O` (stereo partly drawn) [PRD 075, 7-O-cyclopentanecarboxyl-7-deacetylpyripyropene A], for which the IC50 lay in the range of 10 to 100 nM and the “Specific activity: (inhibitory activity of test compound)/(inhibitory activity of pyripyropene A)” value was “++ (10 > specific activity > 5)”.
